Laboratory results taken from ChEMBL document CHEMBL1201862, “PubChem BioAssay data set” (2004).
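Cells were grown in 96-well plates and exposed to each compound for 48 hours at five concentrations; endpoints were interpolated linearly between bracketing concentrations, or set to the highest concentration if not reached. GI50 marks 50% less growth.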 Active and inactive are the calls of the source. No stated cut-off is given here; in the data, active = GI50 up to about 1.1 µM and inactive = higher.

Experiments:
Assay in all cases: growth of human tumour cells (NCI), 48 h
[1] = system: LXFL 529
[2] = system: DLD-1
[3] = system: A498
[4] = system: HCT-15
[5] = system: HOP-18
[6] = system: PC-3
[7] = system: MDA-MB-435
[8] = system: EKVX
[9] = system: HCC 2998
[10] = system: BT-549
[11] = system: NCI-H460
[12] = system: COLO 205
[13] = system: U-251
[14] = system: SK-MEL-2
[15] = system: M19-MEL
[16] = system: Hs-578T
[17] = system: NCI-H23
[18] = system: KM-20L2
[19] = system: NCI-H226
[20] = system: HOP-62
[21] = system: SK-MEL-5
[22] = system: HT-29
[23] = system: OVCAR-8
[24] = system: HCT-116
[25] = system: MCF7
[26] = system: LOX IMVI
[27] = system: Malme-3M
[28] = system: UO-31
[29] = system: SN12C
[30] = system: SW-620
[31] = system: DMS-273
[32] = system: NCI-H522
[33] = system: SK-OV-3
[34] = system: CCRF-CEM
[35] = system: K562
[36] = system: SR
[37] = system: SNB-75
[38] = system: OVCAR-5
[39] = system: HL-60
[40] = system: DMS-114
[41] = system: SNB-19
[42] = system: XF498
[43] = system: HOP-92
[44] = system: SF-539
[45] = system: M14
[46] = system: RXF 393
[47] = system: SNB-78
[48] = system: DU-145
[49] = system: OVCAR-4
[50] = system: MOLT-4
[51] = system: RPMI-8226
[52] = system: MDA-MB-231
[53] = system: IGROV-1
[54] = system: MDA-N
[55] = system: UACC-257
[56] = system: KM12
[57] = system: ACHN
[58] = system: SF-295
[59] = system: CAKI-1
[60] = system: TK-10
[61] = system: A549
[62] = system: T47D
[63] = system: UACC-62
[64] = system: 786-0
[65] = system: SF-268
[66] = system: SK-MEL-28
[67] = system: OVCAR-3
[68] = system: RXF 631

Measured: GI50

COc1ccccc1NC(=O)C1=C(C)NC(C)=C(C(=O)Nc2ccccc2OC)C1c1ccco1
4.76 µM: [4]
active: [39] 0.638 µM
inactive: [1] 5.15 µM | [2] 4.27 µM | [3] 4.3 µM | [5] 3.31 µM | [6] 3.47 µM | [7] 3.48 µM | [8] 10.9 µM | [9] 8.79 µM | [10] 8.49 µM | [11] 3.56 µM | [12] 5.56 µM | [13] 5.86 µM | [14] 3.64 µM | [15] 4.63 µM | [16] 3.1 µM | [17] 6.4 µM | [18] 3.76 µM | [19] 7.94 µM | [20] 6.28 µM | [21] 3.02 µM | [22] 3.92 µM | [23] 17.8 µM | [24] 4.36 µM | [25] 3.59 µM | [26] 8.07 µM | [27] 4.2 µM | [28] 9.27 µM | [29] 13.4 µM | [30] 4.49 µM | [31] 4.14 µM | [32] 2.66 µM | [33] 7.01 µM | [34] 5.06 µM | [35] 5.19 µM | [36] 1.34 µM | [37] 3.37 µM | [38] 39.8 µM | [40] 2.87 µM | [41] 7.71 µM | [42] 6.01 µM | [43] 3.98 µM | [44] 4.13 µM | [45] 4.71 µM | [46] 2.51 µM | [47] 9.1 µM | [48] 21.4 µM | [49] 8.57 µM | [50] 3.87 µM | [51] 4.52 µM | [52] 23.6 µM | [53] 9.14 µM | [54] 2.74 µM | [55] 9.55 µM | [56] 3.98 µM | [57] 6.41 µM | [58] 4.31 µM | [59] 4.09 µM | [60] 19.5 µM | [61] 5.18 µM | [62] 11.9 µM | [63] 3.12 µM | [64] 4.45 µM | [65] 10.3 µM | [66] 19.7 µM | [67] 2.91 µM | [68] 6.18 µM
